Experimental data from US20240373851A1, “PEST CONTROL COMPOSITION AND PEST CONTROL METHOD” (SUMITOMO CHEMICAL COMPANY, LIMITED, priority 2021, published 2024).

Tests used:
Type in all cases: in vivo
[1] = test system: German cockroaches (Blattella germanica); test: Test Example 10: control test against German cockroaches, spray in chamber; settings: adult German cockroaches; 1.5 mL sprayed; concentration [%]: nicofluprole 0.01, imiprothrin 0.01, permethrin 0.05, alone or mixed; 60 minutes after spraying
Experimental: (§1) Next, the usefulness of the inventive composition for controlling pests will be indicated by Test Examples. In general, the control effect to be expected when treated with a mixture obtained by mixing given two or three types of active ingredient compounds is determined by the Colby's calculation equation represented by the following [Equation 1] and [Equation 2].
(§2) [formula] • P: moribund and mortal rates (%) when treated with an active ingredient compound X in the concentration of m [ppm] • Q: moribund and mortal rates (%) when treated with an active ingredient compound Y in the concentration of n [ppm] • EA: moribund and mortal rates (%) when treated with an active ingredient compound X in the concentration of m [ppm] and an active ingredient compound Y in the concentration of n [ppm] (hereinafter referred to as expected value A) […]
(§3) Regarding the synergistic effect of three types of the active ingredient compounds, in case where the moribund and mortal rates (%) when actually treated with a mixture obtained by mixing three types of the active ingredient compounds exceed the expected value A calculated by using the moribund and mortal rates (%) when actually treated with a mixture obtained by mixing two types of the active ingredient compounds among three types thereof, and the moribund and mortal rates (%) calculated when actually treated the remaining one type of the active ingredient compound, or the expected value B (%) calculated from the moribund and mortal rates (%) when actually treated with each of three types of the active ingredient compounds alone, it was determined that the synergistic effect exists. […]

[2] = test system: German cockroaches (Blattella germanica); test: Test Example 8: control test against German cockroaches, spray in chamber; settings: adult German cockroaches; 1.5 mL sprayed; concentration [%]: nicofluprole 0.01, imiprothrin 0.01, phenothrin 0.1, alone or mixed; 45 minutes after spraying
Experimental: as §1, §2, §3

[3] = test system: German cockroaches (Blattella germanica); test: Test Example 11: control test against German cockroaches, spray in chamber; settings: adult German cockroaches; 1.5 mL sprayed; concentration [%]: isocycloseram 0.01, imiprothrin 0.01, permethrin 0.05, alone or mixed; 120 minutes after spraying
Experimental: as §1, §2, §3

[4] = test system: German cockroaches (Blattella germanica); test: Test Example 4: control test against German cockroaches, spray in chamber; settings: adult German cockroaches; 1.5 mL sprayed; concentration [%]: nicofluprole 0.01, imiprothrin 0.01, deltamethrin 0.0002, alone or mixed; 45 minutes after spraying
Experimental: as §1, §2, §3

## C#CCN1CC(=O)N(COC(=O)[C@@H]2C(C=C(C)C)C2(C)C)C1=O (mixture of isomers) [Imiprothrin, imiprothrin]
[1]
  Moribund and mortal rates [%] after 60 minutes: 40%
[2]
  Moribund and mortal rates [%] after 45 minutes: 65%
[3]
  Moribund and mortal rates [%] after 120 minutes: 15%
[4]
  Moribund and mortal rates [%] after 45 minutes: 65%
